Experimental data reported in ChEMBL document CHEMBL5108015, “4,6-Disubstituted-1H-Indazole-4-Amine derivatives with immune-chemotherapy effect and in vivo antitumor activity” (Eur J Med Chem, 2022).
Activity calls are given as the source filed them. No cut-off for these calls is given here.

Assays:
[1] = molecular target: T1, Tryptophan 2,3-dioxygenase (Homo sapiens, UniProt P48775); assay: (§1) Inhibition of N-terminal hexa-histidine tagged human TDO (19 to 388 residues) expressed in Escherichia coli Transetta (DE3) using L-tryptophan as substrate preincubated with enzyme for 10 mins followed by substrate addition and measured after 30 to 60 mins by microplate reader analysis
Target sequence in this assay (P48775 whole entry, the tested form may be a part): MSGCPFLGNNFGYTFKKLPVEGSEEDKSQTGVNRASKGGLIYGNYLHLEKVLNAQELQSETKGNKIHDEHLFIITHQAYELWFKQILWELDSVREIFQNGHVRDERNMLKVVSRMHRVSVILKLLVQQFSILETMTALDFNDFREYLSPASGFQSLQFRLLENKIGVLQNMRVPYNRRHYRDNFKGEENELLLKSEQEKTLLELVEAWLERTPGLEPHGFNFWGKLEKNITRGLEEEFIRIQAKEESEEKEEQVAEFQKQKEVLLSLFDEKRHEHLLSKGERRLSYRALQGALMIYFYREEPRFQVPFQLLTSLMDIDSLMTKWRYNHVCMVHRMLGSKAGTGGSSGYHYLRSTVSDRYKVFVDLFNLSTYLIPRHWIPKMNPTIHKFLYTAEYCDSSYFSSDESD

CT26 [2] = assay: Antitumor activity against mouse CT26 cells implanted in BALB/c mouse assessed as reduction in tumor weight at 12.5 to 50 mg/kg, IG administered every one day for 9 days and measured every 3 days by vernier caliper analysis; type: functional, organism-based; settings: dose 12.5-50 mg/kg, time 9.0 day
[3] = molecular target: T2, Indoleamine 2,3-dioxygenase 1 (Homo sapiens, UniProt P14902); assay: (§2) Inhibition of N-terminal hexa-histidine tagged human IDO1 (12 to 403 residues) expressed in Escherichia coli Transetta (DE3) using L-tryptophan as substrate preincubated with enzyme for 10 mins followed by substrate addition and measured after 30 to 60 mins by microplate reader analysis
Target sequence in this assay (P14902 whole entry, the tested form may be a part): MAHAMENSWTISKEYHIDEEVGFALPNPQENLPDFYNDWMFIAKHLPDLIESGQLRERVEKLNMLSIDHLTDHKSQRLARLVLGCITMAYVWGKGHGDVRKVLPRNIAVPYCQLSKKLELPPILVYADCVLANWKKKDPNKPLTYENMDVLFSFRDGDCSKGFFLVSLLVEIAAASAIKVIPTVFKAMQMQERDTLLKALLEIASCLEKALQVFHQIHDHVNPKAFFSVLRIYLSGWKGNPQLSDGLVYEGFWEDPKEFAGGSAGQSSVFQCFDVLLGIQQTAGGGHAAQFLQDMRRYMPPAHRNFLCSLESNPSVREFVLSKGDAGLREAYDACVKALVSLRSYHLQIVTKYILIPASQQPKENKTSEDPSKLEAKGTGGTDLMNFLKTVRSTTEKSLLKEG

CT26 [4] = assay: Antitumor activity against mouse CT26 cells implanted in BALB/c mouse assessed as inhibition of tumor volume at 25 mg/kg, IG administered every one day for 9 days and measured every 3 days by vernier caliper analysis relative to control; type: functional; settings: CT26, po, 216 h, time 9 day
[5] = molecular target: T1, Tryptophan 2,3-dioxygenase; assay: as §1, with “as substrate at 10 uM preincubated with” for “as substrate preincubated with”, “reader analysis relative to control” for “reader analysis”; settings: time 40-70 min
Target sequence in this assay (P48775 whole entry, looked up, the tested form may be a part): as the sequence (P48775 whole entry, the tested form may be a part) above

[6] = molecular target: T1, Tryptophan 2,3-dioxygenase; assay: Inhibition of TDO in HEK293-A cells transfected with pCMV-TDO2; type: cell-based
Target sequence in this assay (P48775 whole entry, the tested form may be a part): as above

[7] = Toxicity in BALB/c mouse implanted with mouse CT26 cells assessed as reduction in body weight at 12.5 to 50 mg/kg, IG administered every one day for 9 days and measured every 3 days; type: organism-based; settings: in vivo, po, 216 h, dose 12.5-50 mg/kg, time 9 day
CT26 [8] = assay: Upregulation of CD8 expression in tumor of BALB/c mouse implanted with mouse CT26 cells at 12.5 to 50 mg/kg, IG administered every one day for 9 days by Hematoxylin staining based immunohistochemistry analysis; type: functional, organism-based; settings: dose 12.5-50 mg/kg, time 9.0 day
CT26 [9] = assay: Downregulation of TNF-alpha expression in tumor of BALB/c mouse implanted with mouse CT26 cells at 12.5 to 50 mg/kg, IG administered every one day for 9 days by Hematoxylin staining based immunohistochemistry analysis; type: functional, organism-based; settings: dose 12.5-50 mg/kg, time 9.0 day
Jurkat = assay: Cytotoxicity against human Jurkat cells assessed as inhibition of cell growth incubated for 24 hrs by MTT assay; type: functional, cell-based
[10] = Cytotoxicity against […] cells assessed as inhibition of cell growth incubated for 24 hrs by MTT assay; type: functional, cell-based; settings: Mus musculus, Hepa1-6, 24 h
B16 = assay: Cytotoxicity against mouse B16 cells assessed as inhibition of cell growth incubated for 24 hrs by MTT assay; type: functional, cell-based; settings: B16, 24 h
[11] = molecular target: T2, Indoleamine 2,3-dioxygenase 1; assay: as §2, with “as substrate at 10 uM preincubated with” for “as substrate preincubated with”, “reader analysis relative to control” for “reader analysis”; settings: time 40-70 min
Target sequence in this assay (P14902 whole entry, looked up, the tested form may be a part): as the sequence (P14902 whole entry, the tested form may be a part) above

[12] = molecular target: T1, Tryptophan 2,3-dioxygenase; assay: as §1, with “as substrate at 100 uM preincubated with” for “as substrate preincubated with”, “reader analysis relative to control” for “reader analysis”; settings: time 40-70 min
Target sequence in this assay (P48775 whole entry, looked up, the tested form may be a part): as the sequence (P48775 whole entry, the tested form may be a part) above

CT26 [13] = assay: Downregulation of Foxp3 expression in tumor of BALB/c mouse implanted with mouse CT26 cells at 12.5 to 50 mg/kg, IG administered every one day for 9 days by Hematoxylin staining based immunohistochemistry analysis; type: functional, organism-based; settings: dose 12.5-50 mg/kg, time 9.0 day
HEK293 = assay: Cytotoxicity against HEK293 cells assessed as inhibition of cell growth at <10 uM incubated for 24 hrs by MTT assay; type: toxicity, cell-based; settings: human, hek293, 24 h
HepG2 = assay: Cytotoxicity against human HepG2 cells assessed as inhibition of cell growth incubated for 24 hrs by MTT assay; type: functional, cell-based; settings: HepG2, 24 h
MOLM-13 = assay: Cytotoxicity against human MOLM-13 cells assessed as inhibition of cell growth incubated for 24 hrs by MTT assay; type: functional, cell-based; settings: MOLM-13, 24 h
H22 = assay: Cytotoxicity against mouse H22 cells assessed as inhibition of cell growth incubated for 24 hrs by MTT assay; type: functional, cell-based; settings: H22, 24 h
[14] = molecular target: T2, Indoleamine 2,3-dioxygenase 1; assay: as §2, with “as substrate at 100 uM preincubated with” for “as substrate preincubated with”, “reader analysis relative to control” for “reader analysis”; settings: time 40-70 min
Target sequence in this assay (P14902 whole entry, looked up, the tested form may be a part): as the sequence (P14902 whole entry, the tested form may be a part) above

CT26 [15] = assay: Antitumor activity against mouse CT26 cells implanted in BALB/c mouse assessed as reduction in tumor volume at 12.5 to 50 mg/kg, IG administered every one day for 9 days and measured every 3 days by vernier caliper analysis; type: functional, organism-based; settings: dose 12.5-50 mg/kg, time 9.0 day
[16] = molecular target: T2, Indoleamine 2,3-dioxygenase 1; assay: Inhibition of human IDO1
Target sequence in this assay (P14902 whole entry, the tested form may be a part): as above

[17] = molecular target: T1, Tryptophan 2,3-dioxygenase; assay: Inhibition of human TDO
Target sequence in this assay (P48775 whole entry, the tested form may be a part): as the sequence (P48775 whole entry, the tested form may be a part) above

CT26 [18] = assay: Antitumor activity against mouse CT26 cells implanted in BALB/c mouse assessed as inhibition of tumor volume at 30 mg/kg, IG administered every one day for 9 days and measured every 3 days by vernier caliper analysis relative to control; type: functional; settings: CT26, po, 216 h, time 9 day
CT26 [19] = assay: Antitumor activity against mouse CT26 cells implanted in BALB/c mouse assessed as inhibition of tumor volume at 50 mg/kg, IG administered every one day for 9 days and measured every 3 days by vernier caliper analysis relative to control; type: functional; settings: CT26, po, 216 h, time 9 day
CT26 [20] = assay: Antitumor activity against mouse CT26 cells implanted in BALB/c mouse assessed as reduction in tumor volume at 50 mg/kg, IG administered every one day for 9 days and measured every 3 days by vernier caliper analysis relative to control; type: functional, organism-based; settings: time 9.0 day
CT26 [21] = assay: Antitumor activity against mouse CT26 cells implanted in BALB/c mouse assessed as reduction in tumor weight at 50 mg/kg, IG administered every one day for 9 days and measured every 3 days by vernier caliper analysis; type: functional, organism-based; settings: time 9.0 day
[22] = Toxicity in BALB/c mouse implanted with mouse CT26 cells assessed as reduction in body weight at 50 mg/kg, IG administered every one day for 9 days and measured every 3 days; type: organism-based; settings: in vivo, po, 216 h, time 9 day
[23] = molecular target: Tyrosine-protein kinase JAK2 (Homo sapiens) (UniProt O60674); assay: Inhibition of human JAK2 at 2 uM by DiscoveryX Kinomescan assay relative to control
[24] = molecular target: Receptor-type tyrosine-protein kinase FLT3 (Homo sapiens) (UniProt P36888); assay: Inhibition of human FLT3 at 2 uM by DiscoveryX Kinomescan assay relative to control
[25] = molecular target: RAF proto-oncogene serine/threonine-protein kinase (Homo sapiens) (UniProt P04049); assay: Inhibition of human c-Raf at 2 uM by DiscoveryX Kinomescan assay relative to control
[26] = molecular target: Tyrosine-protein kinase JAK1 (Homo sapiens) (UniProt P23458); assay: Inhibition of human JAK1 at 2 uM by DiscoveryX Kinomescan assay relative to control
[27] = molecular target: Mast/stem cell growth factor receptor Kit (Homo sapiens) (UniProt P10721); assay: Inhibition of human c-KIT at 2 uM by DiscoveryX Kinomescan assay relative to control
[28] = molecular target: Serine/threonine-protein kinase pim-1 (Homo sapiens) (UniProt P11309); assay: Inhibition of human PIM-1 at 2 uM by DiscoveryX Kinomescan assay relative to control
Serine/threonine-protein kinase pim-1 (Homo sapiens), sequence (P11309 whole entry, looked up): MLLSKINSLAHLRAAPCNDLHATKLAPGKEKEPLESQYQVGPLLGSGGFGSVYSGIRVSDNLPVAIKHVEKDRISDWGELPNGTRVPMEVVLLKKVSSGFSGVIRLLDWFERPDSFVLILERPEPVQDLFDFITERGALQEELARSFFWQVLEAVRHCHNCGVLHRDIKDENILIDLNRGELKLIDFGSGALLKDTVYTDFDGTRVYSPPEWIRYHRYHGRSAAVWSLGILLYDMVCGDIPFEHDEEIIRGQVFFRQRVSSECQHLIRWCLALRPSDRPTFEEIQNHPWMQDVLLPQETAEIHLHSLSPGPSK

[29] = molecular target: DNA-dependent protein kinase catalytic subunit (Homo sapiens) (UniProt P78527); assay: Inhibition of human DNA-PK at 2 uM by DiscoveryX Kinomescan assay relative to control
[30] = molecular target: Tyrosine-protein kinase Yes (Homo sapiens) (UniProt P07947); assay: Inhibition of human YES at 2 uM by DiscoveryX Kinomescan assay relative to control
Tyrosine-protein kinase Yes (Homo sapiens), sequence (P07947 2-543 limits assumed): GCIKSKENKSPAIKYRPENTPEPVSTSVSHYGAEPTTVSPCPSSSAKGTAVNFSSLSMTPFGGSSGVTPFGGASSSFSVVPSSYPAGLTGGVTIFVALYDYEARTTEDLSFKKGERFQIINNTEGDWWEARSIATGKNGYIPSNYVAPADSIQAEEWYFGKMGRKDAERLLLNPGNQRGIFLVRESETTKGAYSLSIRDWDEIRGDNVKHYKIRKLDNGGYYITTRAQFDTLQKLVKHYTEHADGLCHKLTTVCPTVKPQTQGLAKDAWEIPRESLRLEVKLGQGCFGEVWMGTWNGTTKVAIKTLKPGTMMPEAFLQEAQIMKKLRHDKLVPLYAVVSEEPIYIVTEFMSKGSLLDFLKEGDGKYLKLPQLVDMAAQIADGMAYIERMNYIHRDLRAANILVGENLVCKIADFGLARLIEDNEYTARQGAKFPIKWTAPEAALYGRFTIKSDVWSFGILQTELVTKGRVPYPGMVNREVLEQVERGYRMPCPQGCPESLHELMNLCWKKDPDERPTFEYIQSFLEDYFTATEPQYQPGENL

[31] = molecular target: Tyrosine-protein kinase receptor UFO (Homo sapiens) (UniProt P30530); assay: Inhibition of human AXL at 2 uM by DiscoveryX Kinomescan assay relative to control
[32] = molecular target: Serine/threonine-protein kinase B-raf (Homo sapiens) (UniProt P15056); assay: Inhibition of human B-Raf at 2 uM by DiscoveryX Kinomescan assay relative to control
[33] = molecular target: Serine/threonine-protein kinase pim-2 (Homo sapiens) (UniProt Q9P1W9); assay: Inhibition of human PIM-2 at 2 uM by DiscoveryX Kinomescan assay relative to control
Serine/threonine-protein kinase pim-2 (Homo sapiens), sequence (Q9P1W9 whole entry, looked up): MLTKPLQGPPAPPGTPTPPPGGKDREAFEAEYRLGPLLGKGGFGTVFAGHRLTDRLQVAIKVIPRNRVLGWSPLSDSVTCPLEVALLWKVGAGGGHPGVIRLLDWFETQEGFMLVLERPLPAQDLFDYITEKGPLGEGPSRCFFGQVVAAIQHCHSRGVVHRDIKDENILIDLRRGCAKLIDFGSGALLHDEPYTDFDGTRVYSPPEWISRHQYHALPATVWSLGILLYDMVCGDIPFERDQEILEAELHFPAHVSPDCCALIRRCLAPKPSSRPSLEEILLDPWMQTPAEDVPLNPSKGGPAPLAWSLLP

[34] = molecular target: Tyrosine-protein kinase Lyn (Homo sapiens) (UniProt P07948); assay: Inhibition of human LYN at 2 uM by DiscoveryX Kinomescan assay relative to control
Tyrosine-protein kinase Lyn (Homo sapiens), sequence (P07948 2-512 limits assumed): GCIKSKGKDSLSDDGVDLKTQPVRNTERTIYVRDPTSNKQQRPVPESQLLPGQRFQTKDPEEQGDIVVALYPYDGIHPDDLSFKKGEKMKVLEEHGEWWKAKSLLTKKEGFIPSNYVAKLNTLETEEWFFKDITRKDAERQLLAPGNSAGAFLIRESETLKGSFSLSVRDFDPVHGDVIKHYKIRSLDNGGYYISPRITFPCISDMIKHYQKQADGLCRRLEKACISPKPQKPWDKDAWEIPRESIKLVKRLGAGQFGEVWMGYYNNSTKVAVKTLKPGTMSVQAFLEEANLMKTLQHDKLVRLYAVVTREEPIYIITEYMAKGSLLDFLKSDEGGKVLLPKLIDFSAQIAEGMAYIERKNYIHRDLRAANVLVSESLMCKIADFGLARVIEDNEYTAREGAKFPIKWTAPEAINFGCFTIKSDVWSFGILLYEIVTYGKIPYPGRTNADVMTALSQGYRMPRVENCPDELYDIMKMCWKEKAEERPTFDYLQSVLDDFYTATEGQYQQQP

[35] = molecular target: Platelet-derived growth factor receptor alpha (Homo sapiens) (UniProt P16234); assay: Inhibition of human PDGFRalpha at 2 uM by DiscoveryX Kinomescan assay relative to control
[36] = molecular target: Tyrosine-protein kinase BTK (Homo sapiens) (UniProt Q06187); assay: Inhibition of human BTK at 2 uM by DiscoveryX Kinomescan assay relative to control
[37] = test system: Receptor-type tyrosine-protein kinase FLT3 (Homo sapiens), P36888 [D835Y]; assay: Inhibition of human FLT3 D835Y mutant at 2 uM by DiscoveryX Kinomescan assay relative to control
[38] = molecular target: Tyrosine-protein kinase JAK3 (Homo sapiens) (UniProt P52333); assay: Inhibition of human JAK3 at 2 uM by DiscoveryX Kinomescan assay relative to control
[39] = molecular target: Vascular endothelial growth factor receptor 2 (Homo sapiens) (UniProt P35968); assay: Inhibition of human KDR at 2 uM by DiscoveryX Kinomescan assay relative to control
Vascular endothelial growth factor receptor 2 (Homo sapiens), sequence (P35968 whole entry): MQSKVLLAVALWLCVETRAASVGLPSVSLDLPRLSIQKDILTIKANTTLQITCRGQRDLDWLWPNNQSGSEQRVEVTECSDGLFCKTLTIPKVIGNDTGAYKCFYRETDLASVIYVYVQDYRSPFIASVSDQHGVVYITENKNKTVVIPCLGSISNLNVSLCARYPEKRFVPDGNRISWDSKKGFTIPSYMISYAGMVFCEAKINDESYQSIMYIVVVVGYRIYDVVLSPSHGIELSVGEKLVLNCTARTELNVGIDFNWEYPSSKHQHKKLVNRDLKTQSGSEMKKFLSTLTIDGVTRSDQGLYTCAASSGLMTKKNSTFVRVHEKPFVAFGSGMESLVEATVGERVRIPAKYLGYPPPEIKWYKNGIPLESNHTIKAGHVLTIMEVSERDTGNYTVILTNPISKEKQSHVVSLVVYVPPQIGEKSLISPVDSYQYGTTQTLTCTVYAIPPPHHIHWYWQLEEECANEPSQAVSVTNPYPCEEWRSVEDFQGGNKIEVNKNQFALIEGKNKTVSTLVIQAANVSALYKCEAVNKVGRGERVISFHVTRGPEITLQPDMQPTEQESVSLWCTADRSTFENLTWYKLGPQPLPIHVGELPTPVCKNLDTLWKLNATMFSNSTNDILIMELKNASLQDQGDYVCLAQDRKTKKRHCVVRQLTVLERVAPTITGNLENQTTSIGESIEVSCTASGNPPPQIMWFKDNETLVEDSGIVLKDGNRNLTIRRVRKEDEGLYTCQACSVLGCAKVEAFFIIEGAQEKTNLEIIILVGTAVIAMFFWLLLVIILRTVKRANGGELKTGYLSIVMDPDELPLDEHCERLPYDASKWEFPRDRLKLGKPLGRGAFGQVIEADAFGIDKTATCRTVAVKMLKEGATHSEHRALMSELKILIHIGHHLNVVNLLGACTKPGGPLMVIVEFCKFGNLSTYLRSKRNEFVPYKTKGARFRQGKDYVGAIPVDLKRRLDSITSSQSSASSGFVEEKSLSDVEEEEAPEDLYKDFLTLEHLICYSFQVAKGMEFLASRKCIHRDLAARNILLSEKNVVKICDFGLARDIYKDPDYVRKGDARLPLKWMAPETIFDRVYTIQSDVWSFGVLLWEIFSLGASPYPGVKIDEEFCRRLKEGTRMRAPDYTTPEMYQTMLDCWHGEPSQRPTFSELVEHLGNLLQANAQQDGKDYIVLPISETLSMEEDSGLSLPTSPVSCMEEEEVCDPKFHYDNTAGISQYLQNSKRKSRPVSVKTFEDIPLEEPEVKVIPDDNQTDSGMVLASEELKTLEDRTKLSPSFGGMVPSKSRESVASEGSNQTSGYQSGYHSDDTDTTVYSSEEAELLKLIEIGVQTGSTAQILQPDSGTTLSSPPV

Row | SMILES | IC50 [1] [µM] | IC50 [3] [µM] | inhibition [5] [%] | inhibition [11] [%] | inhibition [12] [%] | inhibition [14] [%] | IC50 (Jurkat) [µM] | IC50 [10] [µM] | IC50 (B16) [µM] | IC50 (HepG2) [µM] | IC50 (MOLM-13) [µM] | IC50 (H22) [µM] | other results
1 | CC(C(=O)c1ccc(O)cc1)C1(O)C(=O)Nc2c(Cl)cc(Cl)cc21 (stereo unspecified) |  |  |  |  |  |  |  |  |  |  |  |  | Ki [16]: > 1 µM; Ki [17]: > 1 µM
2 | NC(=O)Nc1ccc(-c2c[nH]c3cc(F)ccc23)cc1 |  |  |  |  |  |  |  |  |  |  |  |  | IC50 [16]: 0.049 µM; IC50 [17]: 0.078 µM
3 | O[C@@H]1c2ccnn2CC[C@H]1[C@H]1c2ccccc2-c2cncn21 |  |  |  |  |  |  |  |  |  |  |  |  | IC50 [16]: 4.5 µM; IC50 [17]: 0.13 µM
4 | NS(=O)(=O)NCCNc1nonc1/C(=N/O)Nc1ccc(F)c(Br)c1 [EPACADOSTAT] |  |  |  |  |  |  |  |  |  |  |  |  | inhibition in vivo at 30 mg/kg (CT26 [18]): 57.5%
5 | O=[N+]([O-])c1ccc(O)cc1CNc1cc(Br)cc2[nH]ncc12 | 0.46 | 0.91 | 96 | 92 | 99 | 98 | > 20 | > 20 | > 20 | > 20 | > 20 | > 20 | inhibition in vivo at 50 mg/kg (CT26 [19]): 60.5%; Activity (CT26 [20]): Active; Activity (CT26 [21]): Active; Activity [22]: Non-Toxic

Second part, led by results:

Row | IC50 [1] [µM] | IC50 [3] [µM] | inhibition [5] [%] | inhibition [11] [%] | inhibition [12] [%] | inhibition [14] [%] | SMILES | IC50 (Jurkat) [µM] | IC50 [10] [µM] | IC50 (B16) [µM] | IC50 (HepG2) [µM] | IC50 (MOLM-13) [µM] | IC50 (H22) [µM] | other results
6 | 0.62 | > 100 | 90 | 36 | 92 | 62 | Cc1ccc(CNc2cc(C(F)(F)F)cc3[nH]ncc23)c([N+](=O)O)c1 | 7.25 | 5.08 | 37.4 | 0.54 | 3.43 | 1.34 | Activity (CT26 [2]): Active; inhibition in vivo at 25 mg/kg (CT26 [4]): 76.9%; IC50 [6]: 0.06 µM; Activity [7]: Non-Toxic; Activity (CT26 [8]): Active; Activity (CT26 [9]): Active; Activity (CT26 [13]): Active; Activity (HEK293): Non-Toxic; Activity (CT26 [15]): Active
7 | 2.55 | 13.9 | 89 | 35 | 95 | 76 | O=[N+]([O-])c1ccccc1CNc1cc(C(F)(F)F)cc2[nH]ncc12 | > 20 | 7.58 | > 20 | 7.76 | 2.35 | 9.01 | inhibition [23]: 35%; inhibition [24]: 93%; inhibition [25]: 31%; inhibition [26]: 66%; inhibition [27]: 61%; inhibition [28]: 78%; inhibition [29]: 0%; inhibition [30]: 33%; inhibition [31]: 33%; inhibition [32]: 27%; inhibition [33]: 4%; inhibition [34]: 50%; inhibition [35]: 23%; inhibition [36]: 12%; inhibition [37]: 96%; inhibition [38]: 78%; inhibition [39]: 100%
8 | 3.19 | 37.7 | 84 | 35 | 88 | 65 | O=[N+]([O-])c1ccc(Cl)cc1CNc1cc(C(F)(F)F)cc2[nH]ncc12 | 1.1 | 0.94 | 11.6 | 1.3 | 1.05 | 0.49 | Activity (HEK293): Non-Toxic
